Measurements as given in US20070172424A1, “Enabling drug adherence through closed loop monitoring & communication” (priority 2006, published 2007).

Assays:
[1] = rats, within 24 hours of administration; cited from earlier work
[2] = in vivo
Description: The ability to detect the blood concentration of a pain reliever, such as liquid acetaminophen in the blood stream by measuring a tracer is described. The research is carried out by two researchers A & B.
10 ml liquid cough medicine (acetaminophen) 10 ml of 80 proof vodka
Researcher “A” combines the liquid cough medicine together with the vodka in a common flask. “A” stirs until mixed. “A” gives the mixture to the study subject to consume orally. Waits 30 minutes. Subject breathes into breathalyzer, “A” extracts blood sample. “A” repeats both measurements 8 more times at 30 minute intervals. “A” compares alcohol readings with a PK curve for alcohol; compares mass spectrometer analysis of blood for the presence of acetaminophen with a PK curve for acetaminophen.
The standard PK curves for alcohol & acetaminophen are provided to “B”, and he is told the must analyze one reading that was taken 2 hours after ingestion, and determine whether the alcohol reading was within the anticipated range of PK curve. He is given the alcohol breathalyzer result for 2 hours after ingestion.

For `CC(C)=CCCC(C)=CC=O` [Citral], the “fraction of the given dose excreted in urine” value [1] is listed as 50%.
With `CC(=O)Nc1ccc(O)cc1` [acetaminophen] the “PK results versus standard PK curve for acetaminophen” value ([2]; po) was “fall within range of the standard PK curve”.
In the case of `CCO` [alcohol], the “2-hour breathalyzer reading versus anticipated range of PK curve” value [2] is reported as “fall within statistical range” and the “PK results versus standard PK curve for alcohol” value ([2]; po) is reported as “fall within range of the standard PK curve”.
